The text below walks through data of patent EP2849731B1, “FORMULATION FOR LOW BIOAVAILABILITY SUBSTANCES CONTAINING A N-ACETYLCYSTEINE-CHITOSAN SALT” (Labomar S.r.l., priority 2012, dated 2013).

Series [1] is described as follows: Intestinal passage test: curcumin passage through the Caco-2 monolayer, HPLC-UV. To be noted: human.
Protocol: The passage through a monolayer of Caco-2 cells of Composition A at non-cytotoxic concentration is monitored at defined times (0 min- 15 min -30 min and 60 min).
The Caco-2 cells grown as a monolayer on a permeable artificial support reproduce the intestinal epithelial layer (monolayer of cells that are polarized and coupled by tight junctions). The flow through the monolayer allows to establish the permeability of a substance.
After 21 days of growth on insert, the differentiated cells show an apical side, corresponding to the intestinal lumen in vivo, and one that corresponds to the basolateral compartment of the blood and lymphatic circulation of the organism.
The culture medium is aspirated from all cell monolayers before the experiments of permeability. All cell monolayers are washed once with HBSS solution (Hank's Balanced Salt Solution) and left to equilibrate at 37°C for 20 min. […] In parallel, the same amount of substance is divided into equal aliquots and represents the apical sample at time = 0 minutes (0'AP). At the receiving side of the monolayer 1.2 mL of 1X HBSS-Hepes 1% (pH 7.4) are added. […]
Using the mathematical formulas described by Arturrson the relationships are calculated between concentrations of substances in the basolateral (receiver) and in the apical (donor) compartments at each sampling time.
Series [2] in a line: Curcumin detection by HPLC-UV in the 0.25% w/w solution of Composition A in buffer. To be noted: due to incomplete solubility in the buffers. It is filed as physicochemical.

What is called Papp A→B is how fast a substance crosses the layer from the apical side. The low end stands for slow passage, the high end for fast passage.

Each structure is given as a SMILES string.

Take `COc1cc(/C=C/C(=O)CC(=O)/C=C/c2ccc(O)c(OC)c2)ccc1O` [Curcumin, curcumin]: the apparent permeability from apical to basolateral (Papp A→B) at 60 min, 1.404 mM in series [1] turned out to be 0.804 ×10⁻⁶ cm/s. In addition, the “loss in title (theoretical curcumin content not detected in the solution)” value in series [2] came out at 23%.
